Converted amounts (≈) assume the structure as drawn.
Test system: E. coli tolC mutant
Experiment: microbe, parasite or virus in culture
Type: cell-based, Escherichia coli
Settings: Escherichia coli, read-out: MIC E. coli tolC mutant

Structure (SMILES)	MIC [µg/mL]
COc1cc(Cc2cnc(N)nc2N)cc(OC)c1OCCCCCn1cc(CNS(=O)(=O)c2cccc3c(N(C)C)cccc23)nn1 [compound 14c]	0.25 (≈ 0.37 µM)
COc1cc(Cc2cnc(N)nc2N)cc(OC)c1OCCCn1cc(CNS(=O)(=O)c2cccc3c(N(C)C)cccc23)nn1 [compound 14a]	0.5 (≈ 0.772 µM)
COc1cc(Cc2cnc(N)nc2N)cc(OC)c1OCCCn1cc(CNC(=O)Cc2cc(=O)oc3cc(N(C)C)ccc23)nn1 [13a]	8 (≈ 12.4 µM)

Target: T1, E. coli dihydrofolate reductase (eDHFR) (Escherichia coli, UniProt P0ABQ4)
T1 construct: host or cells: cell-free (PURExpress in vitro protein synthesis)
T1 sequence (P0ABQ4 whole entry): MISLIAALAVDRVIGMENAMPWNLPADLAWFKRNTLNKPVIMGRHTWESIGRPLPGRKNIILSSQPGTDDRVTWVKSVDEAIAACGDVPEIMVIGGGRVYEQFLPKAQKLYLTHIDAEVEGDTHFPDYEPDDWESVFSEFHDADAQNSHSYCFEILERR
Experiment: DHFR enzyme inhibition assay
Type: biochemical
Settings: not given

Structure (SMILES)	IC50 [µM]
COc1cc(Cc2cnc(N)nc2N)cc(OC)c1OCCCCCn1cc(CNS(=O)(=O)c2cccc3c(N(C)C)cccc23)nn1 [compound 14c]	0.509
COc1cc(Cc2cnc(N)nc2N)cc(OC)c1OCCCn1cc(CNS(=O)(=O)c2cccc3c(N(C)C)cccc23)nn1 [compound 14a]	0.162
COc1cc(Cc2cnc(N)nc2N)cc(OC)c1OCCCn1cc(CNC(=O)Cc2cc(=O)oc3cc(N(C)C)ccc23)nn1 [13a]	0.083

Test system: E. coli ATCC 25922
Experiment: MIC determination, E. coli ATCC 25922 (wild type)
Type: cell-based, Escherichia coli
Settings: Escherichia coli, ATCC25922, wild type; n = 4; read-out: MIC E. coli ATCC 25922

Structure (SMILES)	MIC [µg/mL]
COc1cc(Cc2cnc(N)nc2N)cc(OC)c1OCCCCCn1cc(CNS(=O)(=O)c2cccc3c(N(C)C)cccc23)nn1 [compound 14c]	> 64
COc1cc(Cc2cnc(N)nc2N)cc(OC)c1OCCCn1cc(CNS(=O)(=O)c2cccc3c(N(C)C)cccc23)nn1 [compound 14a]	> 64
COc1cc(Cc2cnc(N)nc2N)cc(OC)c1OCCCn1cc(CNC(=O)Cc2cc(=O)oc3cc(N(C)C)ccc23)nn1 [13a]	> 64

Test system: E. coli DC2 mutant
Experiment: microbe, parasite or virus in culture
Type: cell-based
Settings: Escherichia coli, DC2MUTANT, read-out: MIC E. coli DC2 mutant

Structure (SMILES)	MIC [µg/mL]
COc1cc(Cc2cnc(N)nc2N)cc(OC)c1OCCCCCn1cc(CNS(=O)(=O)c2cccc3c(N(C)C)cccc23)nn1 [compound 14c]	> 64
COc1cc(Cc2cnc(N)nc2N)cc(OC)c1OCCCn1cc(CNS(=O)(=O)c2cccc3c(N(C)C)cccc23)nn1 [compound 14a]	> 64
COc1cc(Cc2cnc(N)nc2N)cc(OC)c1OCCCn1cc(CNC(=O)Cc2cc(=O)oc3cc(N(C)C)ccc23)nn1 [13a]	> 64

Test system: E. coli MB4827
Experiment: MIC determination, E. coli MB4827
Type: cell-based
Settings: Escherichia coli, n = 4

Structure (SMILES)	MIC [µg/mL]
COc1cc(Cc2cnc(N)nc2N)cc(OC)c1OCCCCCn1cc(CNS(=O)(=O)c2cccc3c(N(C)C)cccc23)nn1 [compound 14c]	> 64
COc1cc(Cc2cnc(N)nc2N)cc(OC)c1OCCCn1cc(CNS(=O)(=O)c2cccc3c(N(C)C)cccc23)nn1 [compound 14a]	> 64
COc1cc(Cc2cnc(N)nc2N)cc(OC)c1OCCCn1cc(CNC(=O)Cc2cc(=O)oc3cc(N(C)C)ccc23)nn1 [13a]	> 64

Test system: S. aureus ATCC 25923
Experiment: MIC determination, S. aureus ATCC 25923
Type: cell-based
Settings: Staphylococcus aureus, ATCC25923, n = 4; read-out: MIC S. aureus ATCC 25923

Structure (SMILES)	MIC [µg/mL]
COc1cc(Cc2cnc(N)nc2N)cc(OC)c1OCCCCCn1cc(CNS(=O)(=O)c2cccc3c(N(C)C)cccc23)nn1 [compound 14c]	32 (≈ 47.4 µM)
COc1cc(Cc2cnc(N)nc2N)cc(OC)c1OCCCn1cc(CNS(=O)(=O)c2cccc3c(N(C)C)cccc23)nn1 [compound 14a]	> 64
COc1cc(Cc2cnc(N)nc2N)cc(OC)c1OCCCn1cc(CNC(=O)Cc2cc(=O)oc3cc(N(C)C)ccc23)nn1 [13a]	> 64

Test system: E. coli lpxC/tolC mutant
Experiment: microbe, parasite or virus in culture
Type: cell-based
Settings: Escherichia coli, read-out: MIC E. coli lpxC/tolC mutant

Structure (SMILES)	MIC [µg/mL]
COc1cc(Cc2cnc(N)nc2N)cc(OC)c1OCCCCCn1cc(CNS(=O)(=O)c2cccc3c(N(C)C)cccc23)nn1 [compound 14c]	0.25 (≈ 0.37 µM)
COc1cc(Cc2cnc(N)nc2N)cc(OC)c1OCCCn1cc(CNS(=O)(=O)c2cccc3c(N(C)C)cccc23)nn1 [compound 14a]	0.5 (≈ 0.772 µM)
COc1cc(Cc2cnc(N)nc2N)cc(OC)c1OCCCn1cc(CNC(=O)Cc2cc(=O)oc3cc(N(C)C)ccc23)nn1 [13a]	8 (≈ 12.4 µM)

Test system: not listed separately
Experiment: Cytotoxicity assay (resazurin), HEK 293
Type: cell-based
Settings: human, HEK293 cells, 20 h incubation, highest concentration 60 μM

Structure (SMILES)	CC50 at 20 h [µM]
COc1cc(Cc2cnc(N)nc2N)cc(OC)c1OCCCCCn1cc(CNS(=O)(=O)c2cccc3c(N(C)C)cccc23)nn1 [compound 14c]	32
COc1cc(Cc2cnc(N)nc2N)cc(OC)c1OCCCn1cc(CNS(=O)(=O)c2cccc3c(N(C)C)cccc23)nn1 [compound 14a]	59
COc1cc(Cc2cnc(N)nc2N)cc(OC)c1OCCCn1cc(CNC(=O)Cc2cc(=O)oc3cc(N(C)C)ccc23)nn1 [13a]	> 60

Test system: not listed separately
Experiment: Cytotoxicity assay (resazurin), HepG2
Type: cell-based
Settings: human, HepG2 cells, 20 h incubation, highest concentration 60 μM

Structure (SMILES)	CC50 at 20 h [µM]
COc1cc(Cc2cnc(N)nc2N)cc(OC)c1OCCCCCn1cc(CNS(=O)(=O)c2cccc3c(N(C)C)cccc23)nn1 [compound 14c]	51
COc1cc(Cc2cnc(N)nc2N)cc(OC)c1OCCCn1cc(CNS(=O)(=O)c2cccc3c(N(C)C)cccc23)nn1 [compound 14a]	> 60
COc1cc(Cc2cnc(N)nc2N)cc(OC)c1OCCCn1cc(CNC(=O)Cc2cc(=O)oc3cc(N(C)C)ccc23)nn1 [13a]	> 60

Test system: E. coli lpxC mutant
Experiment: microbe, parasite or virus in culture
Type: cell-based
Settings: Escherichia coli, read-out: MIC E. coli lpxC mutant

Structure (SMILES)	MIC [µg/mL]
COc1cc(Cc2cnc(N)nc2N)cc(OC)c1OCCCCCn1cc(CNS(=O)(=O)c2cccc3c(N(C)C)cccc23)nn1 [compound 14c]	> 64
COc1cc(Cc2cnc(N)nc2N)cc(OC)c1OCCCn1cc(CNS(=O)(=O)c2cccc3c(N(C)C)cccc23)nn1 [compound 14a]	> 64
COc1cc(Cc2cnc(N)nc2N)cc(OC)c1OCCCn1cc(CNC(=O)Cc2cc(=O)oc3cc(N(C)C)ccc23)nn1 [13a]	> 64

Test system: E. coli clin isol
Experiment: MIC determination, E. coli clinical isolate (first column)
Type: cell-based
Settings: Escherichia coli, n = 4

Structure (SMILES)	MIC [µg/mL]
COc1cc(Cc2cnc(N)nc2N)cc(OC)c1OCCCCCn1cc(CNS(=O)(=O)c2cccc3c(N(C)C)cccc23)nn1 [compound 14c]	> 64
COc1cc(Cc2cnc(N)nc2N)cc(OC)c1OCCCn1cc(CNS(=O)(=O)c2cccc3c(N(C)C)cccc23)nn1 [compound 14a]	> 64
COc1cc(Cc2cnc(N)nc2N)cc(OC)c1OCCCn1cc(CNC(=O)Cc2cc(=O)oc3cc(N(C)C)ccc23)nn1 [13a]	> 64

Test system: E. coli clin isol
Experiment: MIC determination, E. coli clinical isolate (second column)
Type: cell-based
Settings: Escherichia coli, n = 4

Structure (SMILES)	MIC [µg/mL]
COc1cc(Cc2cnc(N)nc2N)cc(OC)c1OCCCCCn1cc(CNS(=O)(=O)c2cccc3c(N(C)C)cccc23)nn1 [compound 14c]	> 64
COc1cc(Cc2cnc(N)nc2N)cc(OC)c1OCCCn1cc(CNS(=O)(=O)c2cccc3c(N(C)C)cccc23)nn1 [compound 14a]	> 64
COc1cc(Cc2cnc(N)nc2N)cc(OC)c1OCCCn1cc(CNC(=O)Cc2cc(=O)oc3cc(N(C)C)ccc23)nn1 [13a]	> 64

— publication PMC5067704 (ACS Infectious Diseases, 2016)
